From US6894049B1, “Platinum complexes as antitumor agents” (AnorMED, Inc., priority 2000, dated 2005)
pIC50: −log10 of the molar value. Where two headings read alike, the source gives them in different places.

Tests used:
41M = experiment: Cell proliferation, human cancer cell line 41M; format: cell-based; conditions: read-out: concentration necessary to achieve a 50% decrease in cell proliferation
Procedure: (§1) The complexes of the invention were tested against human cancer cell lines grown in cell culture according to established testing procedures (described by Holford, et al., British J. Cancer 1998 77(3) 366-373). The results are given in concentrations (μM) necessary to achieve a 50% decrease in cell proliferation, with resistance factors in brackets for the cisplatin-resistant cell lines.

A2780R = experiment: Cell proliferation, cisplatin-resistant human cancer cell line A2780R; format: cell-based; conditions: for resistance factor: A2780R/A2780, in brackets; for pIC50: A2780R, read-out: concentration necessary to achieve a 50% decrease in cell proliferation
Procedure: as §1

CH1 = experiment: Cell proliferation, human cancer cell line CH1; format: cell-based; conditions: read-out: concentration necessary to achieve a 50% decrease in cell proliferation
Procedure: as §1

A2780 = experiment: Cell proliferation, human cancer cell line A2780; format: cell-based; conditions: read-out: concentration necessary to achieve a 50% decrease in cell proliferation
Procedure: as §1

CH1R = experiment: Cell proliferation, cisplatin-resistant human cancer cell line CH1R; format: cell-based; conditions: for resistance factor: CH1R/CH1, in brackets; for pIC50: CH1R, read-out: concentration necessary to achieve a 50% decrease in cell proliferation
Procedure: as §1

41MR = experiment: Cell proliferation, cisplatin-resistant human cancer cell line 41MR; format: cell-based; conditions: for resistance factor: 41MR/41M, in brackets; for pIC50: 41MR, read-out: concentration necessary to achieve a 50% decrease in cell proliferation
Procedure: as §1

[1] = Maximum tolerated dose in mice; format: in vivo
[2] = Aqueous solubility at ambient conditions; format: physicochemical
[3] = background statement; cited from earlier work

With Cc1cc(C)[n+]([Pt-2]([NH3+])([Cl])[Cl])[nH]1 [Example 1, (SP-4-3)-amminedichloro(3.5-dimethylpyrazole)platinum(II)] as the molecule, how does the pIC50 (41M) read?
The pIC50 was 5.46.

And the resistance factor (A2780R)?
Its resistance factor is 3.4.

And the pIC50 (A2780R)?
Its pIC50 is 5.04.

And the pIC50 (CH1)?
Its pIC50 is 5.69.

What about the pIC50 (A2780) of the same molecule?
Its pIC50 is 5.57.

And the resistance factor (CH1R)?
Its resistance factor is 1.9.

And the pIC50 (CH1R)?
Its pIC50 is 5.42.

What about the resistance factor (41MR) of the same molecule?
Its resistance factor is 1.3.

What about the pIC50 (41MR) of the same molecule?
Its pIC50 is 5.35.

With Cc1cc(C)[n+]([Pt-2]([NH3+])([Cl])[Cl])n1C [Example 2, (SP-4-3)-amminedichloro(1,3,5-trimethylpyrazole)platinum(II)] as the molecule, how does the pIC50 (41M) read?
Its pIC50 is 5.07.

What about the “decrease in resistance factor” value (A2780R; A2780/A2780R, compared to cis-ammine(2-methylpyridine)dichloroplatinum(II)) of the same molecule?
Its value is 2.6 fold.

And the resistance factor (A2780R)?
The resistance factor was 1.8.

What about the pIC50 (A2780R) of the same molecule?
Its pIC50 is 4.81.

And the “maximum tolerated dose (MTD)” value [1]?
The value was “greater than 50 mg/Kg”.

And the pIC50 (CH1)?
The pIC50 was 5.04.

And the pIC50 (A2780)?
Its pIC50 is 5.07.

And the resistance factor (CH1R)?
Its resistance factor is 1.2.

And the pIC50 (CH1R)?
Its pIC50 is 4.96.

What about the resistance factor (41MR) of the same molecule?
Its resistance factor is 1.8.

And the pIC50 (41MR)?
The pIC50 was 4.81.

Which results are given for Cn1cc[n+]([Pt-2]([NH3+])([Cl])[Cl])c1 [Example 3]?
pIC50 (41M): 5.13; resistance factor (A2780R): 2.6; pIC50 (A2780R): 4.78; pIC50 (CH1): 5.12; pIC50 (A2780): 5.19; resistance factor (CH1R): 1.4; pIC50 (CH1R): 4.98; resistance factor (41MR): 1.7; pIC50 (41MR): 4.90

With Cc1cc(C)[n+]([Pt-2]([NH3+])([Cl])[Cl])o1 [Example 4] as the molecule, how does the pIC50 (41M) read?
The pIC50 was 5.10.

And the resistance factor (A2780R)?
Its resistance factor is 6.4.

And the pIC50 (A2780R)?
The pIC50 was 4.63.

And the pIC50 (CH1)?
Its pIC50 is 5.49.

And the pIC50 (A2780)?
The pIC50 was 5.43.

What about the resistance factor (CH1R) of the same molecule?
Its resistance factor is 2.5.

And the pIC50 (CH1R)?
The pIC50 was 5.10.

What about the “Aqueous Solubility” value [2] of the same molecule?
The value was 1270 µg/mL.

What about the pIC50 (41MR) of the same molecule?
Its pIC50 is 5.22.

Which results are given for Cc1c[n+]([Pt-2]([NH3+])([Cl])[Cl])c(C)cn1 [Example 5]?
pIC50 (41M): 4.94; resistance factor (A2780R): 5.8; pIC50 (A2780R): 4.46; pIC50 (CH1): 5.30; pIC50 (A2780): 5.22; resistance factor (CH1R): 1.6; pIC50 (CH1R): 5.10; pIC50 (41MR): 5.05

What does the source list for Cc1ncc[n+]([Pt-2]([NH3+])([Cl])[Cl])c1C [Example 6]?
pIC50 (41M): 5.18; resistance factor (A2780R): 5.1; pIC50 (A2780R): 4.76; pIC50 (CH1): 5.49; pIC50 (A2780): 5.47; resistance factor (CH1R): 1.7; pIC50 (CH1R): 5.27; pIC50 (41MR): 5.19

With Cc1n(C)cc[n+]1[Pt-2]([NH3+])([Cl])[Cl] [Example 7] as the molecule, how does the pIC50 (41M) read?
The pIC50 was 5.03.

What about the resistance factor (A2780R) of the same molecule?
The resistance factor was 2.5.

What about the pIC50 (A2780R) of the same molecule?
Its pIC50 is 4.76.

What about the pIC50 (CH1) of the same molecule?
Its pIC50 is 5.08.

And the pIC50 (A2780)?
Its pIC50 is 5.15.

And the resistance factor (CH1R)?
Its resistance factor is 1.4.

And the pIC50 (CH1R)?
Its pIC50 is 4.92.

And the resistance factor (41MR)?
The resistance factor was 1.6.

And the pIC50 (41MR)?
Its pIC50 is 4.82.

Which results are given for Cc1[nH]cc[n+]1[Pt-2]([NH3+])([Cl])[Cl] [Example 8]?
pIC50 (41M): 4.68; pIC50 (CH1): 5.28; resistance factor (CH1R): 2.5; pIC50 (CH1R): 4.90; resistance factor (41MR): 0.8; pIC50 (41MR): 4.78

With Cc1oc(C)[n+]([Pt-2]([NH3+])([Cl])[Cl])c1C [Example 10] as the molecule, how does the pIC50 (41M) read?
The pIC50 was 4.93.

What about the resistance factor (A2780R) of the same molecule?
The resistance factor was 4.1.

And the pIC50 (A2780R)?
Its pIC50 is 4.40.

And the pIC50 (CH1)?
Its pIC50 is 5.28.

And the pIC50 (A2780)?
Its pIC50 is 5.01.

And the resistance factor (CH1R)?
The resistance factor was 1.8.

What about the pIC50 (CH1R) of the same molecule?
The pIC50 was 5.03.

What about the pIC50 (41MR) of the same molecule?
The pIC50 was 4.94.

Which results are given for Cc1cc(C)[n+]([Pt-2]([NH3+])([OH])([OH])([Cl])[Cl])[nH]1 [Example 11, (OC-6-43)amminedichlorodihydroxo-(3.5-dimethylpyrazole)platinum(IV)]?
pIC50 (41M): 4.96; resistance factor (A2780R): 5.1; pIC50 (A2780R): 4.43; pIC50 (CH1): 5.70; pIC50 (A2780): 5.14; resistance factor (CH1R): 2.5; pIC50 (CH1R): 5.30; pIC50 (41MR): 5.09

With Cn1cc[n+]([Pt-2]([NH3+])([OH])([OH])([Cl])[Cl])c1 [Example 12, (OC-6-43)-amminedichlorodihydroxo-(1-methylimidazole)platinum(IV)] as the molecule, how does the pIC50 (41M) read?
Its pIC50 is 4.63.

What about the resistance factor (A2780R) of the same molecule?
Its resistance factor is 4.5.

What about the pIC50 (A2780R) of the same molecule?
The pIC50 was 4.11.

What about the pIC50 (CH1) of the same molecule?
Its pIC50 is 4.89.

And the pIC50 (A2780)?
Its pIC50 is 4.77.

And the resistance factor (CH1R)?
Its resistance factor is 1.9.

What about the pIC50 (CH1R) of the same molecule?
The pIC50 was 4.61.

And the resistance factor (41MR)?
The resistance factor was 1.9.

And the pIC50 (41MR)?
Its pIC50 is 4.35.

With CC(=O)[O][Pt-2]([NH3+])([Cl])([Cl])([O]C(C)=O)[n+]1ccnc(C)c1C [Example 14, (OC-6-43)-amminedichlorodiacetato-(2,3-dimethylpyrazine)platinum(IV)] as the molecule, how does the pIC50 (41M) read?
Its pIC50 is 4.54.

What about the pIC50 (CH1) of the same molecule?
Its pIC50 is 5.03.

And the resistance factor (CH1R)?
Its resistance factor is 3.2.

And the pIC50 (CH1R)?
The pIC50 was 4.52.

And the resistance factor (41MR)?
The resistance factor was 1.2.

And the pIC50 (41MR)?
Its pIC50 is 4.44.

With Cc1n(C)cc[n+]1[Pt-2]([NH3+])([OH])([OH])([Cl])[Cl] [Example 15] as the molecule, how does the pIC50 (41M) read?
The pIC50 was 4.64.

What about the resistance factor (A2780R) of the same molecule?
Its resistance factor is greater than 7.4.

What about the pIC50 (A2780R) of the same molecule?
Its pIC50 is less than 4.00.

What about the pIC50 (CH1) of the same molecule?
Its pIC50 is 4.92.

What about the pIC50 (A2780) of the same molecule?
The pIC50 was 4.87.

And the resistance factor (CH1R)?
The resistance factor was 1.4.

What about the pIC50 (CH1R) of the same molecule?
The pIC50 was 4.78.

What about the resistance factor (41MR) of the same molecule?
The resistance factor was 0.9.

What about the pIC50 (41MR) of the same molecule?
Its pIC50 is 4.68.

What does the source list for Cc1c[n+]([Pt-2]([NH3+])([OH])([OH])([Cl])[Cl])c(C)[nH]1 [Example 16]?
pIC50 (41M): 4.72; resistance factor (A2780R): > 8; pIC50 (A2780R): < 4.00; pIC50 (CH1): 5.00; pIC50 (A2780): 4.90; resistance factor (CH1R): 2.1; pIC50 (CH1R): 4.68; resistance factor (41MR): 1.5; pIC50 (41MR): 4.55

Which results are given for CC(=O)[O][Pt]([NH2])([Cl])([Cl])([NH]C1CCCCC1)[O]C(C)=O [bis-acetato-ammine(cyclohexylamine)dichloroplatinum(IV), reference compound]?
pIC50 (41M): 6.30; resistance factor (A2780R): 4.6; pIC50 (A2780R): 5.74; pIC50 (A2780): 6.40; resistance factor (CH1R): 4; pIC50 (CH1R): 6.40; Aqueous Solubility [2]: <1000 µg/mL; resistance factor (41MR): 1.2; pIC50 (41MR): 6.22

What does the source list for CCCC(=O)[O][Pt]([NH2])([Cl])([Cl])([NH]C1CCCCC1)[O]C(=O)CCC [bis-butyrato-ammine(cyclohexylamine)dichloroplatinum(IV), reference compound]?
pIC50 (41M): 7.14; pIC50 (CH1): 8.18; resistance factor (CH1R): 3.7; pIC50 (CH1R): 7.62; resistance factor (41MR): 0.67; pIC50 (41MR): 7.32

With [NH2][Pt]1([NH2])[O]C(=O)C2(CCC2)C(=O)[O]1 [carboplatin, diammine[1,1-cyclobutanedicarboxylato (2-)]-O,O′-platinum(II), reference compound] as the molecule, how does the pIC50 (41M) read?
Its pIC50 is 5.48.

What about the pIC50 (A2780R) of the same molecule?
Its pIC50 is 4.59.

What about the Aqueous Solubility [3] of the same molecule?
The Aqueous Solubility was 14000 µg/mL.

And the pIC50 (CH1)?
Its pIC50 is 5.89.

And the pIC50 (A2780)?
The pIC50 was 5.74.

What about the resistance factor (CH1R) of the same molecule?
The resistance factor was 4.5.

What about the pIC50 (CH1R) of the same molecule?
Its pIC50 is 5.22.

And the resistance factor (41MR)?
The resistance factor was 2.7.

And the pIC50 (41MR)?
The pIC50 was 5.06.

Which results are given for N.N.[Cl][Pt][Cl] [cisplatin, [PtCl2(NH3)2], reference compound]?
pIC50 (41M): 6.59; pIC50 (A2780R): 5.28; maximum tolerated dose (MTD) [1]: 11.3 mg/kg; pIC50 (CH1): 6.96; pIC50 (A2780): 6.48; resistance factor (CH1R): 6.5; pIC50 (CH1R): 6.15; resistance factor (41MR): 4.6; pIC50 (41MR): 5.92

Which results are given for “cis-ammine(2-methylpyridine)dichloroplatinum(II) [reference compound]”?
pIC50 (41M): 5.25; resistance factor (A2780R): 4.8; pIC50 (A2780R): 4.92; pIC50 (CH1): 5.66; pIC50 (A2780): 5.60; resistance factor (CH1R): 1; pIC50 (CH1R): 5.68; resistance factor (41MR): 1.1; pIC50 (41MR): 5.22
